Results on 8 molecules are retold here after patent publication US8551937B2, “Peptide having an extending action for half-life of object peptide in plasma” (priority 2008, dated 2013).

In general, half-life refers to how long it takes for the measured level to halve. A higher half-life goes with slow loss.

Where a SMILES comes first, the peptide text is derived from it.

A short description of this series: Motilin immunoreactivity concentration in plasma, half-life after intravenous administration (Example 8). As to conditions: male, SD, rat, in vivo, iv, 10 nmol/kg. On the procedure: The experiment was carried out using rats into which polyethylene tube (PE-50 manufactured by Clay Adams) was inserted into thigh artery under an anesthetized condition with Nembutal. As to a test system, male SD strain rats (Nippon Charles River) of 7 weeks age were used where one group comprised 3 rats. Human motilin or a derivative thereof in a dose of 10 nmol/kg was administered into tail vein of the rat and the blood before the administration and until 60 minutes after the administration was periodically collected by a polyethylene tube inserted into the thigh artery. To the collected blood were added EDTA (manufactured by Dojin Laboratories) and aprotinin (manufactured by Bayer) as a stabilizer and an anti-coagulant, respectively and the plasma was separated therefrom by centrifugal separation. Motilin immunoreactivity concentration in plasma was measured by a competitive radioimmunoassay (RIA) (FIG. 8). At that time, a rabbit polyclonal antibody (#870623) which specifically recognizes the amino acid numbers 1 to 12 of native motilin shown by SEQ ID No: 102 was used as an antibody and, as a labeled compound, ^125I-[Tyr^7] human motilin was used.
Molecule `CC[C@H](C)[C@H](NC(=O)[C@H](CCSC)NC(=O)[C@H](CCCCN)NC(=O)[C@H](CCCCN)NC(=O)[C@H](CO)NC(=O)[C@H](CCC(=O)O)NC(=O)[C@H](CCCCN)NC(=O)[C@H](CCCNC(=N)N)NC(=O)[C@H](CCC(N)=O)NC(=O)[C@H](CCC(N)=O)NC(=O)[C@@H](NC(=O)[C@H](CCCNC(=N)N)NC(=O)[C@H](CCC(N)=O)NC(=O)[C@H](CC(C)C)NC(=O)[C@H](CCC(=O)O)NC(=O)CNC(=O)[C@H](Cc1ccc(O)cc1)NC(=O)[C@@H](NC(=O)[C@H](Cc1ccccc1)NC(=O)[C@@H](NC(=O)[C@@H]1CCCN1C(=O)[C@@H](NC(=O)[C@@H](N)Cc1ccccc1)C(C)C)[C@@H](C)CC)[C@@H](C)O)C(C)C)C(=O)N[C@H](C(=O)N[C@H](C(=O)N[C@@H](CCCNC(=N)N)C(=O)O)[C@@H](C)CC)[C@@H](C)O` [Chimeric motilin (IX)(MG-dPPS)] (H-FVPIFTYGELQRVQQRKESKKMITIR-OH; N-terminus and C-terminus assumed) gave a half-life of 4.39 min.

`CC[C@H](C)[C@H](NC(=O)[C@@H]1CCCN1C(=O)[C@@H](NC(=O)[C@@H](N)Cc1ccccc1)C(C)C)C(=O)N[C@@H](Cc1ccccc1)C(=O)N[C@H](C(=O)N[C@@H](Cc1ccc(O)cc1)C(=O)NCC(=O)N[C@@H](CCC(=O)O)C(=O)N[C@@H](CC(C)C)C(=O)N[C@@H](CCC(N)=O)C(=O)N[C@@H](CCCNC(=N)N)C(=O)N[C@H](C(=O)N[C@@H](CCC(N)=O)C(=O)N[C@@H](CCC(N)=O)C(=O)N[C@@H](CCCNC(=N)N)C(=O)N[C@@H](CCCCN)C(=O)N[C@@H](CCC(N)=O)C(=O)N[C@@H](CO)C(=O)N[C@@H](CCCCN)C(=O)N[C@@H](CCCCN)C(=O)N1CCC[C@H]1C(=O)N1CCC[C@H]1C(=O)N[C@@H](C)C(=O)N[C@@H](CCCCN)C(=O)N[C@@H](CC(C)C)C(=O)N[C@@H](CCC(N)=O)C(=O)N1CCC[C@H]1C(=O)N[C@@H](CCCNC(=N)N)C(=O)O)C(C)C)[C@@H](C)O` [Chimeric motilin (U)(MG-17E/Q)] (H-FVPIFTYGELQRVQQRKQSKKPPAKLQPR-OH; N-terminus and C-terminus assumed) yielded a half-life of 5.66 min. For `CC[C@H](C)[C@H](NC(=O)[C@@H]1CCCN1C(=O)[C@@H](NC(=O)[C@@H](N)Cc1ccccc1)C(C)C)C(=O)N[C@@H](Cc1ccccc1)C(=O)N[C@H](C(=O)N[C@@H](Cc1ccc(O)cc1)C(=O)NCC(=O)N[C@@H](CCC(=O)O)C(=O)N[C@@H](CC(C)C)C(=O)N[C@@H](CCC(N)=O)C(=O)N[C@@H](CCCNC(=N)N)C(=O)N[C@H](C(=O)N[C@@H](CCC(N)=O)C(=O)N[C@@H](CCC(N)=O)C(=O)N[C@@H](CCCNC(=N)N)C(=O)N[C@@H](CCCCN)C(=O)N[C@@H](CCC(=O)O)C(=O)N1CCC[C@H]1C(=O)N[C@@H](CCCCN)C(=O)N[C@@H](CCCCN)C(=O)N1CCC[C@H]1C(=O)N1CCC[C@H]1C(=O)N[C@@H](C)C(=O)N[C@@H](CCCCN)C(=O)N[C@@H](CC(C)C)C(=O)N[C@@H](CCC(N)=O)C(=O)N1CCC[C@H]1C(=O)N[C@@H](CCCNC(=N)N)C(=O)O)C(C)C)[C@@H](C)O` [Chimeric motilin (Q)(MG-18S/P)] (H-FVPIFTYGELQRVQQRKEPKKPPAKLQPR-OH; N-terminus and C-terminus assumed) the value was 9.65 min; for `CC[C@H](C)[C@H](NC(=O)[C@@H]1CCCN1C(=O)[C@@H](NC(=O)[C@@H](N)Cc1ccccc1)C(C)C)C(=O)N[C@@H](Cc1ccccc1)C(=O)N[C@H](C(=O)N[C@@H](Cc1ccc(O)cc1)C(=O)NCC(=O)N[C@@H](CCC(=O)O)C(=O)N[C@@H](CC(C)C)C(=O)N[C@@H](CCC(N)=O)C(=O)N[C@@H](CCCNC(=N)N)C(=O)N[C@H](C(=O)N[C@@H](CCC(N)=O)C(=O)N[C@@H](CCC(N)=O)C(=O)N[C@@H](CCCCN)C(=O)N[C@@H](CCCCN)C(=O)N[C@@H](C)C(=O)N[C@@H](Cc1ccc(O)cc1)C(=O)N[C@@H](CO)C(=O)N1CCC[C@H]1C(=O)N[C@@H](CC(=O)O)C(=O)N[C@@H](CCCCN)C(=O)N[C@@H](CCC(=O)O)C(=O)N[C@@H](CCCNC(=N)N)C(=O)N[C@@H](CCCCN)C(=O)N1CCC[C@H]1C(=O)N1CCC[C@H]1C(=O)N[C@@H](C)C(=O)N[C@@H](CC(C)C)C(=O)N[C@@H](CCC(N)=O)C(=O)N1CCC[C@H]1C(=O)N[C@@H](CCCNC(=N)N)C(=O)O)C(C)C)[C@@H](C)O` [Chimeric motilin (XII)(MGP1)] (H-FVPIFTYGELQRVQQKKAYSPDKERKPPALQPR-OH; N-terminus and C-terminus assumed), 13 min; for `CC[C@H](C)[C@H](NC(=O)[C@@H]1CCCN1C(=O)[C@@H](NC(=O)[C@@H](N)Cc1ccccc1)C(C)C)C(=O)N[C@@H](Cc1ccccc1)C(=O)N[C@H](C(=O)N[C@@H](Cc1ccc(O)cc1)C(=O)NCC(=O)N[C@@H](CCC(=O)O)C(=O)N[C@@H](CC(C)C)C(=O)N[C@@H](CCC(N)=O)C(=O)N[C@@H](CCCNC(=N)N)C(=O)N[C@H](C(=O)N[C@@H](CCC(N)=O)C(=O)N[C@@H](CCC(N)=O)C(=O)N[C@@H](CCCNC(=N)N)C(=O)N[C@@H](CCCCN)C(=O)N[C@@H](CC(=O)O)C(=O)N[C@@H](CO)C(=O)N[C@@H](CCCCN)C(=O)N[C@@H](CCCCN)C(=O)N1CCC[C@H]1C(=O)N1CCC[C@H]1C(=O)N[C@@H](C)C(=O)N[C@@H](CCCCN)C(=O)N[C@@H](CC(C)C)C(=O)N[C@@H](CCC(N)=O)C(=O)N1CCC[C@H]1C(=O)N[C@@H](CCCNC(=N)N)C(=O)O)C(C)C)[C@@H](C)O` [Chimeric motilin (V)(MG-ES/DS)] (H-FVPIFTYGELQRVQQRKDSKKPPAKLQPR-OH; N-terminus and C-terminus assumed), 10.1 min.

Molecule `CC[C@H](C)[C@H](NC(=O)[C@@H]1CCCN1C(=O)[C@@H](NC(=O)[C@@H](N)Cc1ccccc1)C(C)C)C(=O)N[C@@H](Cc1ccccc1)C(=O)N[C@H](C(=O)N[C@@H](Cc1ccc(O)cc1)C(=O)NCC(=O)N[C@@H](CCC(=O)O)C(=O)N[C@@H](CC(C)C)C(=O)N[C@@H](CCC(N)=O)C(=O)N[C@@H](CCCNC(=N)N)C(=O)N[C@H](C(=O)N[C@@H](CCC(N)=O)C(=O)N[C@@H](CCC(N)=O)C(=O)N[C@@H](CCCNC(=N)N)C(=O)N[C@@H](CCCCN)C(=O)N[C@@H](CCC(=O)O)C(=O)N[C@@H](Cc1ccccc1)C(=O)N[C@@H](CCCCN)C(=O)N[C@@H](CCCCN)C(=O)N1CCC[C@H]1C(=O)N1CCC[C@H]1C(=O)N[C@@H](C)C(=O)N[C@@H](CCCCN)C(=O)N[C@@H](CC(C)C)C(=O)N[C@@H](CCC(N)=O)C(=O)N1CCC[C@H]1C(=O)N[C@@H](CCCNC(=N)N)C(=O)O)C(C)C)[C@@H](C)O` [Chimeric motilin (O)(MG-18S/F)] (H-FVPIFTYGELQRVQQRKEFKKPPAKLQPR-OH; N-terminus and C-terminus assumed) came in with a half-life of 7.73 min. The molecule `CC[C@H](C)[C@H](NC(=O)[C@@H]1CCCN1C(=O)[C@@H](NC(=O)[C@@H](N)Cc1ccccc1)C(C)C)C(=O)N[C@@H](Cc1ccccc1)C(=O)N[C@H](C(=O)N[C@@H](Cc1ccc(O)cc1)C(=O)NCC(=O)N[C@@H](CCC(=O)O)C(=O)N[C@@H](CC(C)C)C(=O)N[C@@H](CCC(N)=O)C(=O)N[C@@H](CCCNC(=N)N)C(=O)N[C@H](C(=O)N[C@@H](CCC(N)=O)C(=O)N[C@@H](CCC(N)=O)C(=O)N[C@@H](CCCNC(=N)N)C(=O)N[C@@H](CCCCN)C(=O)N[C@@H](CCCCN)C(=O)N[C@@H](CCCCN)C(=O)N1CCC[C@H]1C(=O)N1CCC[C@H]1C(=O)N[C@@H](C)C(=O)N[C@@H](CCCCN)C(=O)N[C@@H](CC(C)C)C(=O)N[C@@H](CCC(N)=O)C(=O)N1CCC[C@H]1C(=O)N[C@@H](CCCNC(=N)N)C(=O)O)C(C)C)[C@@H](C)O` [Chimeric motilin (W)(MG-dES)] (H-FVPIFTYGELQRVQQRKKKPPAKLQPR-OH; N-terminus and C-terminus assumed) came in with a half-life of 5.39 min. Regarding `CC[C@H](C)[C@H](NC(=O)[C@@H]1CCCN1C(=O)[C@@H](NC(=O)[C@@H](N)Cc1ccccc1)C(C)C)C(=O)N[C@@H](Cc1ccccc1)C(=O)N[C@H](C(=O)N[C@@H](Cc1ccc(O)cc1)C(=O)NCC(=O)N[C@@H](CCC(=O)O)C(=O)N[C@@H](CC(C)C)C(=O)N[C@@H](CCC(N)=O)C(=O)N[C@@H](CCCNC(=N)N)C(=O)N[C@H](C(=O)N[C@@H](CCC(N)=O)C(=O)N[C@@H](CCC(N)=O)C(=O)N[C@@H](CCCNC(=N)N)C(=O)N[C@@H](CCCCN)C(=O)N[C@@H](CCC(=O)O)C(=O)N[C@H](C(=O)N[C@@H](CCCCN)C(=O)N[C@@H](CCCCN)C(=O)N1CCC[C@H]1C(=O)N1CCC[C@H]1C(=O)N[C@@H](C)C(=O)N[C@@H](CCCCN)C(=O)N[C@@H](CC(C)C)C(=O)N[C@@H](CCC(N)=O)C(=O)N1CCC[C@H]1C(=O)N[C@@H](CCCNC(=N)N)C(=O)O)[C@@H](C)O)C(C)C)[C@@H](C)O` [Chimeric motilin (P)(MG-18S/T)] (H-FVPIFTYGELQRVQQRKETKKPPAKLQPR-OH; N-terminus and C-terminus assumed), the half-life was determined as 9.67 min.
